Results taken from patent publication US7964613B2 (Asahi Kasei Pharma Corporation, priority 2007, dated 2011).
pIC50: −log10 of the molar value.

Experiments:
[1] = biological target: T1, human ROCK1 (Homo sapiens, UniProt Q13464); assay: Measurement of Rho kinase inhibitory activity (ELISA of MBS phosphorylation); format: biochemical; conditions: human ROCK1, MBS substrate, 100 μM ATP, 30° C. for 10 minutes
T1 construct: His tag (N); host or cells: insect cells (Sf9)
Procedure: In this test, human ROCK1 was used as Rho kinase, MBS (myosin binding subunit, subunit constituting myosin phosphatase) was used as the substrate of Rho kinase, and an anti-phosphorylated MBS antibody was used for detection of phosphorylation. The activity for inhibiting Rho kinase was determined by measuring phosphorylation of MBS by the Rho kinase by ELISA in the presence of an appropriately diluted test compound. As the Rho kinase used, a recombinant protein (N-terminal His-tagged recombinant human ROCK1 residues (1Met-[…])) was used, which was produced in insect cells (Sf9) using a sequence (1-727), of which activity was confirmed in the paper of Ishizaki et al. (Ishizaki, T. et al., FEBS Letters, 404, pp 118-124, 1997), based on the sequence of human ROCK1 (p 160 ROCK) described in the report of Ishizaki et al. (Ishizaki, T. et al., EMBO J., 15, pp 1885-1893, 1996). Further, as the MBS protein and anti-phosphorylated MBS antibody, those prepared according to the method described in the paper of Ito et al. (Ito, K et al., J. Physiol., 546, pp 823-836, 2003) were used.
A solution of MBS (Asahi Kasei Pharma, lot No, 040814n7-10) diluted with PBS to an appropriate concentration was added to an ELISA plate (Maxisorp, Nunc), and left, stand overnight at 4° C., and then the wells were washed twice with a washing solution (WB, washing buffer, 0.1% Tween 20/PBS). To the wells were added 1% bovine serum albumin (Sigma)/PBS, and left for 1 to 3 hours, and then the wells were washed 5 times with WB to prepare a substrate-immobilized plate. Onto this plate, a reaction mixture (5 mM MgSO4/0.1 M NaCl/20 mM HEPES (pH 7.5)/100 μM ATP/5 mM DTT), a test compound, and appropriately diluted human ROCK1 (Asahi Kasei Pharma, lot No, 030126.120-22) were added, and then reacted at 30° C. for 10 minutes. Then, 0.2 M EDTA (pH 7.5) was added to terminate the reaction, and the wells were washed 5 times with WB. A rabbit anti-phosphorylated MBS antibody solution (Asahi Kasei Pharma, lot No, 122676431) diluted 10,000 times with WB containing 1% bovine serum albumin was added to the wells, and after the reaction for 1 hour, the wells were washed 5 times with WB. Goat anti-rabbit IgG-HRP (Zymed) diluted 1,000 times with WB containing 1% bovine serum albumin was added to the wells as the secondary detection antibody and the mixture was reacted for 1 hour, and then the wells were washed 5 times with WB. An OPD (o-phenylenediamine) solution (1 mg/ml OPD, Sigma), 5.1 g/l of citric acid monohydrate, and 18.4 g/l of Na2HPO4.12H2O were added to the wells to develop color, […] was added 5 minutes later to terminate the color development, and absorbance was measured at 490 nm.
The inhibition ratio was calculated as follows. Inhibition ratio(%)=[…]
Further, the inhibition ratio was calculated with changing the concentration of the test compound, and a compound concentration providing an inhibition ratio of 50% was obtained as IC50.

[2] = test system: rabbit normal intraocular pressure; assay: Intraocular pressure reducing action; format: in vivo, Japanese white rabbit; conditions: Oryctolagus cuniculus, topical; 3 mM aqueous solution, 50 μl to the left eye; max IOP reduction (2, 4, 6 hours) / value immediately before administration; read-out: intraocular pressure reducing degree
Procedure: A Japanese white rabbit having a body weight of about 2 kg was placed in a positioner and naturalized for one week before the experiment. An opthalmologic local anesthesant (Benoxil) was administered to both eyes, and then intraocular pressure was measured by using a tonometer (Classic 30, Solan). A 3 mM aqueous solution of a test compound was administered in a volume of 50 μl to the left eye, and the right eye was not treated (control eye). The intraocular pressure values were measured for the left and right eyes immediately before, and 2, 4 and 6 hours after the administration of the aqueous solution of the test compound, and the difference of the measured values for the left and right eyes was considered an intraocular pressure reduction value of the test medicament at each measurement time. The largest difference of the values for the left and right eyes among the measured values at the measurement times (after 2, 4 and 6 hours) was considered the maximum intraocular pressure reduction value (max ? IOP) of each test medicament. The intraocular pressure reducing degree representing the intraocular pressure reducing action of each test medicament was calculated according to the following formula. Since rabbits show significant daily variation of intraocular pressure, daily variation is added when change of intraocular pressure is measured over time, and the intraocular pressure reducing action may be overestimated. Therefore, we used this calculation method of intraocular pressure reduction value in order to minimize the influence of the variation. Intraocular pressure reducing degree(%)=(max ? IOP/Intraocular pressure value immediately before administration)×100

T1 sequence (Q13464 1-727): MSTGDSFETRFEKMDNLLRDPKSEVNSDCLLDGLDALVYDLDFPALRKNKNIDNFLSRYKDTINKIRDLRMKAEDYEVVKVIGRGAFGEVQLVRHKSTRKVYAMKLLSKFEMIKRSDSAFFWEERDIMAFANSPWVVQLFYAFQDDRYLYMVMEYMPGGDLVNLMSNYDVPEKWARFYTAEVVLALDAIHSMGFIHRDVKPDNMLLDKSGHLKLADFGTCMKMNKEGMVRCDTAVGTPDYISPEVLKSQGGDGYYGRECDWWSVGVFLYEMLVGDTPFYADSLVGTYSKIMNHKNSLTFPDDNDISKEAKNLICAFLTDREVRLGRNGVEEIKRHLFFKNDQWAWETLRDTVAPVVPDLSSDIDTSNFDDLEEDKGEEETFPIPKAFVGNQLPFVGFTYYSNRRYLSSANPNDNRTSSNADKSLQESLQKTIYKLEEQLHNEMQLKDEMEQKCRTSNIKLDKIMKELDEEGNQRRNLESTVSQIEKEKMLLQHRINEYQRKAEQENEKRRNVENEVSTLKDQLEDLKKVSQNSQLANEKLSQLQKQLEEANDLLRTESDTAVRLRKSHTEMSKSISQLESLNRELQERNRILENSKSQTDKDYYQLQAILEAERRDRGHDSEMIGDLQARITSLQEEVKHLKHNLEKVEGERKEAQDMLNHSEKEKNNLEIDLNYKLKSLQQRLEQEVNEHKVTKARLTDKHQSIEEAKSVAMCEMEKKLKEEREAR

pIC50 [1]	SMILES	inhibition in vivo at 3000 µM [2] [%]
> 6.00	O=S(=O)(c1cccc2cncc(Cl)c12)N1CC[C@H](NCc2ccc3c(c2)OCCO3)C1 [Example 19-40]	5 to 10
5.52 to 6.00	NCC(=O)N[C@H]1CCN(S(=O)(=O)c2cccc3cncc(Cl)c23)C1 [Example 58-1, (S)-3-(2-Aminoacetyl)amino-1-(4-chloro-5-isoquinolinesulfonyl)pyrrolidine]	≥ 20
5.52 to 6.00	N[C@H]1CCCN(S(=O)(=O)c2cccc3cncc(Cl)c23)C1 [Example 21-1, (S)-3-Amino-1-(4-chloro-5-isoquinolinesulfonyl)piperidine]	≥ 20
> 6.00	O=S(=O)(c1cccc2c(O)ncc(Cl)c12)N1CC[C@H](NC2CCOCC2)C1 [Example 64-1, (S)-3-(4-Tetrahydropyranyl)amino-1-(1-hydroxy-4-chloro-5-isoquinolinesulfonyl)pyrrolidine]	10 to 20
5.52 to 6.00	NCCCN[C@H]1CCN(S(=O)(=O)c2cccc3cncc(Cl)c23)C1 [Example 62-1, (S)-3-(3-Aminopropyl)amino-1-(4-chloro-5-isoquinolinesulfonyl)pyrrolidine]	10 to 20
> 6.00	Cc1cnc(O)c2cccc(S(=O)(=O)N3CC[C@H](N)C3)c12 [Example 25-1, (S)-3-Amino-1-(1-hydroxy-4-methyl-5-isoquinolinesulfonyl)pyrrolidine]	10 to 20
5.52 to 6.00	O=S(=O)(c1cccc2c(O)ncc(Br)c12)N1CC[C@H](NCc2ccco2)C1 [Example 38-1, (S)-1-(1-Hydroxy-4-bromo-5-isoquinolinesulfonyl)-3-(2-furylmethylamino)pyrrolidine]	5 to 10
5.52 to 6.00	N[C@@H]1CCCN(S(=O)(=O)c2cccc3cncc(Cl)c23)C1 [Example 21-2, (R)-3-Amino-1-(4-chloro-5-isoquinolinesulfonyl)piperidine]	10 to 20
5.52 to 6.00	CCN[C@H]1CCN(S(=O)(=O)c2cccc3cncc(Cl)c23)C1 [Example 19-4]	–
5.52 to 6.00	N[C@H]1CCN(S(=O)(=O)c2cccc3cncc(C(F)(F)F)c23)C1 [Example 47-1, (S)-3-Amino-1-(4-trifluoromethyl-5-isoquinolinesulfonyl)pyrrolidine]	–

The next lines start with the compound.

SMILES	pIC50 [1]	inhibition in vivo at 3000 µM [2] [%]
COc1cncc2cccc(S(=O)(=O)N3CC[C@H](N)C3)c12 [Example 15-1, (S)-3-Amino-1-(4-methoxy-5-isoquinolinesulfonyl)pyrrolidine]	5.52 to 6.00	5 to 10
Cc1cncc2cccc(S(=O)(=O)N3CC[C@H](NCC4CC4)C3)c12 [Example 8-26]	> 6.00	5 to 10
CC(N)C1CCN(S(=O)(=O)c2cccc3cncc(Cl)c23)CC1 (stereo not shown) [Example 53]	> 6.00	10 to 20
Cc1cncc2cccc(S(=O)(=O)N3CC[C@H](NC4CCC4)C3)c12 [Example 8-28]	> 6.00	5 to 10
Cc1cncc2cccc(S(=O)(=O)N3CC[C@H](NC4CCOCC4)C3)c12 [Example 8-31]	5.52 to 6.00	10 to 20
O=C(CN1CCC1)N[C@H]1CCN(S(=O)(=O)c2cccc3cncc(Cl)c23)C1 [Example 114, (S)-3-[2-(Azetidin-1-yl)acetyl]amino-1-(4-chloro-5-isoquinolinesulfonyl)pyrrolidine]	5.52 to 6.00	5 to 10
O=C(CCN1CCNCC1)N[C@H]1CCN(S(=O)(=O)c2cccc3cncc(Cl)c23)C1 [Example 83, (S)-3-[3-(piperazin-1-yl)propionyl]amino-1-(4-chloro-5-isoquinolinesulfonyl)pyrrolidine]	5.52 to 6.00	10 to 20
Cc1cncc2cccc(S(=O)(=O)N3CC[C@@H](N)C3)c12 [Example 8-2, (R)-3-Amino-1-(4-methyl-5-isoquinolinesulfonyl)pyrrolidine]	> 6.00	≥ 20
O=C(N[C@H]1CCN(S(=O)(=O)c2cccc3cncc(Cl)c23)C1)C1CNCCO1 (stereo partly drawn) [Example 102, N—[(S)-1-(4-chloro-5-isoquinolinesulfonyl)pyrrolidin-3-yl]morpholin-2-carboxamide]	> 6.00	≥ 20
Cc1cncc2cccc(S(=O)(=O)N3CC(N)C3)c12 [Example 26, 3-Amino-1-(4-methyl-5-isoquinolinesulfonyl)azetidine]	> 6.00	5 to 10
O=C(Cn1cnnn1)N[C@H]1CCN(S(=O)(=O)c2cccc3cncc(Cl)c23)C1 [Example 85, (S)-3-[2-(1H-Tetrazol-1-yl)acetyl]amino-1-(4-chloro-5-isoquinolinesulfonyl)pyrrolidine]	5.52 to 6.00	10 to 20
O=S(=O)(c1cccc2cncc(Br)c12)N1CC[C@H](NCc2ccoc2)C1 [Example 1-14]	> 6.00	5 to 10
CN[C@@H]1CCN(S(=O)(=O)c2cccc3cncc(C)c23)C1 [Example 27, (R)-3-(Methylamino)-1-(4-methyl-5-isoquinolinesulfonyl)pyrrolidine]	> 6.00	5 to 10
Cc1cncc2cccc(S(=O)(=O)N3CC[C@H](NC(C)C)C3)c12 [Example 8-27]	5.52 to 6.00	10 to 20
O=C(COC1CCOCC1)N[C@H]1CCN(S(=O)(=O)c2cccc3cncc(Cl)c23)C1 [Example 110, (S)-3-[[2-(Tetrahydro-2H-pyran-4-yloxy)]acetyl]amino-1-(4-chloro-5-isoquinolinesulfonyl)pyrrolidine]	5.52 to 6.00	≥ 20
N[C@@H]1CCN(S(=O)(=O)c2cccc3cncc(Br)c23)C1 [Example 1-2, (R)-3-Amino-1-(4-bromo-5-isoquinolinesulfonyl)pyrrolidine]	> 6.00	≥ 20
N[C@H]1CCN(S(=O)(=O)c2cccc3cncc(Br)c23)C1 [Example 1-1, (S)-3-Amino-1-(4-bromo-5-isoquinolinesulfonyl)pyrrolidine]	> 6.00	≥ 20
Cc1cncc2cccc(S(=O)(=O)N3CC[C@H](NCCN)C3)c12 [Example 8-32]	> 6.00	5 to 10
Cc1cncc2cccc(S(=O)(=O)N3CC[C@H](NC4CCCCC4)C3)c12 [Example 8-30]	5.52 to 6.00	5 to 10
C=CCN[C@H]1CCN(S(=O)(=O)c2cccc3cncc(C)c23)C1 [Example 8-34]	> 6.00	5 to 10
CCCN[C@H]1CCN(S(=O)(=O)c2cccc3cncc(C)c23)C1 [Example 8-5]	> 6.00	–
Cc1cncc2cccc(S(=O)(=O)N3CC[C@H](NCc4ccc5c(c4)OCO5)C3)c12 [Example 8-8]	> 6.00	–
O=S(=O)(c1cccc2cncc(Br)c12)N1CC[C@H](NCCc2ccccc2)C1 [Example 1-13]	> 6.00	–
